Data: US6737383B1, “Herbicidal oxadiazolidines” (priority 1999, dated 2004)

Experiments:
surinam grass = assay: Test D surinam grass; assay type: in vivo, Brachiaria decumbens; details: Preemergence, 0 to 100 scale
Outline: (§1)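 Weed seeds planted in sandy loam; species kept apart in individual pots or compartments. Preemergence tests: treatment to soil surface within one day. Greenhouse growth, then visual injury scoring at 14–21 days (0–100).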

goosegrass = assay: Test D goosegrass; assay type: in vivo, Eleusine indica; details: Preemergence, 0 to 100 scale
Outline: as §1

tall mallow = assay: Test D tall mallow; assay type: in vivo, Malva sylvestris; details: Preemergence, 0 to 100 scale
Outline: as §1

large crabgrass = assay: Test D large crabgrass; assay type: in vivo, Digitaria sanguinalis; details: Preemergence, 0 to 100 scale
Outline: as §1

Green foxtail [1] = assay: Test D green foxtail; assay type: in vivo; details: Preemergence, 0 to 100 scale
Outline: as §1

bermuda-grass = assay: Test D bermudagrass; assay type: in vivo, Cynodon dactylon; details: Preemergence, 0 to 100 scale
Outline: as §1

itchgrass = assay: Test D itchgrass; assay type: in vivo, Rottboellia exaltata; details: Preemergence, 0 to 100 scale
Outline: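 Scoring used a 0–100 visual injury scale, with 0 meaning no effect and 100 complete control, assessed 14–21 days after application alongside untreated pots. Preemergence treatments went onto sandy loam surfaces of separately potted seeds within a day of sowing.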

Johnson grass = assay: Test D Johnson grass; assay type: in vivo, Sorghum halepense; details: Preemergence, 0 to 100 scale
Outline: as §1

sandbur = assay: Test D sandbur; assay type: in vivo, Cenchrus echinatus; details: Preemergence, 0 to 100 scale
Outline: as §1

dallisgrass = assay: Test D dallisgrass; assay type: in vivo, Paspalum dilatatum; details: Preemergence, 0 to 100 scale
Outline: as §1

Spanishneedles = assay: Test D Spanishneedles; assay type: in vivo, Bidens bipinnata; details: Preemergence, 0 to 100 scale
Outline: as §1

Alexandergrass = assay: Test D Alexandergrass; assay type: in vivo, Brachiaria plantaginea; details: Preemergence, 0 to 100 scale
Outline: as §1

purple nutsedge = assay: Test D purple nutsedge; assay type: in vivo, Cyperus rotundus; details: Preemergence, 0 to 100 scale
Outline: as §1

common ragweed = assay: Test D common ragweed; assay type: in vivo, Ambrosia elatior; details: Preemergence, 0 to 100 scale
Outline: as §1

common groundsel = assay: Test D common groundsel; assay type: in vivo, Senecio vulgaris; details: Preemergence, 0 to 100 scale
Outline: as §1

pitted morningglory = assay: Test D pitted morningglory; assay type: in vivo, Ipomoea lacunosa; details: Preemergence, 0 to 100 scale
Outline: as §1

chickweed = assay: Test E chickweed; assay type: in vivo, Stellaria media; details: Preemergence, Rate 250 g/ha; 0 to 100 scale
guineagrass = assay: Test D guineagrass; assay type: in vivo, Panicum maximum; details: Preemergence, 0 to 100 scale
Outline: as §1

Green foxtail [2] = assay: Test D green foxtail; assay type: in vivo
Outline: as §1

[3] = Rate 16 g/ha, 0 no injury, 100 complete control
[4] = Rate 32 g/ha, 0 no injury, 100 complete control
[5] = Rate 64 g/ha, 0 no injury, 100 complete control
[6] = Rate 125 g/ha, 0 no injury, 100 complete control
[7] = Rate 64 g/ha, Preemergence; 0 to 100 scale, 0 no injury, 100 complete control
[8] = Rate 125 g/ha, Preemergence; 0 to 100 scale, 0 no injury, 100 complete control

C=CCn1c(=O)on(C(=O)N(c2ccc(Cl)cc2)C(C)C)c1=O [Compound 105]
45: Tall Mallow plant response rating (tall mallow; [6])
30: Plant response rating, Alexandergrass (Alexandergrass; [4])
85: Plant response rating, Goosegrass (goosegrass; [3]) | Plant response rating, Bermudagrass (bermuda-grass; [3]) | Plant response rating, Itchgrass (itchgrass; Rate 250 g/ha) | Plant response rating, Itchgrass (itchgrass; Rate 500 g/ha) | Plant response rating, Alexandergrass (Alexandergrass; [5]) | Plant response rating, Chickweed (chickweed) | Plant response rating, Guineagrass (guineagrass; [4]) | Plant response rating, Green foxtail (Green foxtail [2]; Preemergence; Rate 32 g/ha; 0 to 100 scale, 0 no injury, 100 complete control)
75: Plant response rating, Tall Mallow (tall mallow; Rate 250 g/ha) | Plant response rating, Tall Mallow (tall mallow; Rate 500 g/ha) | Plant response rating Johnsongrass (Johnson grass; Rate 250 g/ha) | Plant response rating, Purple nutsedge (purple nutsedge; Rate 500 g/ha) | Plant response rating, Green foxtail (Green foxtail [2]; Preemergence; Rate 16 g/ha; 0 to 100 scale, 0 no injury, 100 complete control) | Plant response rating, Green foxtail (Green foxtail [2]; Rate 16 g/ha; Preemergence; 0 to 100 scale, 0 no injury, 100 complete control)
0: Plant response rating, Surinam grass (surinam grass; [3]) | Plant response rating, Surinam grass (surinam grass; [4]) | Surinam grass plant response rating (surinam grass; [5]) | Plant response rating, Tall Mallow (tall mallow; [3]) | Plant response rating, Tall Mallow (tall mallow; [4]) | Tall Mallow plant response rating (tall mallow; [5]) | Plant response rating, Itchgrass (itchgrass; [3]) | Plant response rating, Itchgrass (itchgrass; [4]) | Plant response rating Johnsongrass (Johnson grass; [3]) | Plant response rating Johnsongrass (Johnson grass; [4]) | Plant response rating Johnsongrass (Johnson grass; [5]) | Plant response rating, Sandbur (sandbur; [3]) | Plant response rating, Sandbur (sandbur; [4]) | Sandbur plant response rating (sandbur; [5]) | Sandbur plant response rating (sandbur; [6]) | Plant response rating, Spanishneedles (Spanishneedles; [3]) | Plant response rating, Spanishneedles (Spanishneedles; [4]) | Spanishneedles plant response rating (Spanishneedles; [5]) | Spanishneedles plant response rating (Spanishneedles; [6]) | Plant response rating, Spanishneedles (Spanishneedles; Rate 500 g/ha) | Plant response rating, Alexandergrass (Alexandergrass; [3]) | Plant response rating, Purple nutsedge (purple nutsedge; [3]) | Plant response rating, Purple nutsedge (purple nutsedge; [4]) | Purple nutsedge plant response rating (purple nutsedge; [5]) | Purple nutsedge plant response rating (purple nutsedge; [6]) | Plant response rating, Purple nutsedge (purple nutsedge; Rate 250 g/ha) | Plant response rating, C. ragweed (common ragweed; [3]) | Plant response rating, C. ragweed (common ragweed; [4]) | Plant response rating, C. ragweed (common ragweed; [5]) | Plant response rating, C. ragweed (common ragweed; [6]) | Plant response rating, C. ragweed (common ragweed; Rate 250 g/ha) | Plant response rating, C. ragweed (common ragweed; Rate 500 g/ha) | Plant response rating, Com. groundsel (common groundsel; [3]) | Plant response rating, Com. groundsel (common groundsel; [4]) | Plant response rating, Com. groundsel (common groundsel; [5]) | Plant response rating, Com. groundsel (common groundsel; [6]) | Plant response rating, Com. groundsel (common groundsel; Rate 250 g/ha) | Plant response rating, P. morninglory (pitted morningglory; [3]) | Plant response rating, P. morninglory (pitted morningglory; [4]) | Plant response rating, P. morninglory (pitted morningglory; [5]) | Plant response rating, P. morninglory (pitted morningglory; [6]) | Plant response rating, P. morninglory (pitted morningglory; Rate 250 g/ha) | Plant response rating, P. morninglory (pitted morningglory; Rate 500 g/ha)
100: Plant response rating, Surinam grass (surinam grass; Rate 500 g/ha) | Plant response rating, Goosegrass (goosegrass; Rate 250 g/ha) | Plant response rating, Goosegrass (goosegrass; Rate 500 g/ha) | Plant response rating Large crabgrass (large crabgrass; [5]) | Plant response rating Large crabgrass (large crabgrass; [6]) | Plant response rating Large crabgrass (large crabgrass; Rate 250 g/ha) | Plant response rating Large crabgrass (large crabgrass; Rate 500 g/ha) | Plant response rating, Green foxtail (Green foxtail [1]; Rate 250 g/ha) | Plant response rating, Green foxtail (Green foxtail [1]; Rate 500 g/ha) | Plant response rating, Bermudagrass (bermuda-grass; [6]) | Plant response rating, Bermudagrass (bermuda-grass; Rate 250 g/ha) | Plant response rating, Bermudagrass (bermuda-grass; Rate 500 g/ha) | Plant response rating, Sandbur (sandbur; Rate 500 g/ha) | Plant response rating, Dallisgrass (dallisgrass; [6]) | Plant response rating, Dallisgrass (dallisgrass; Rate 250 g/ha) | Plant response rating, Dallisgrass (dallisgrass; Rate 500 g/ha) | Plant response rating, Alexandergrass (Alexandergrass; Rate 500 g/ha) | Plant response rating, Guineagrass (guineagrass; Rate 250 g/ha) | Plant response rating, Guineagrass (guineagrass; Rate 500 g/ha) | Plant response rating, Green foxtail (Green foxtail [2]; Rate 32 g/ha; Preemergence; 0 to 100 scale, 0 no injury, 100 complete control) | Green foxtail plant response rating (Green foxtail [2]; [7]) | Plant response rating, Green foxtail (Green foxtail [2]; [7]) | Green foxtail plant response rating (Green foxtail [2]; [8]) | Plant response rating, Green foxtail (Green foxtail [2]; [8]) | Plant response rating, Green foxtail (Green foxtail [2]; Rate 250 g/ha; Preemergence; 0 to 100 scale) | Plant response rating, Green foxtail (Green foxtail [2]; Rate 500 g/ha, Preemergence; 0 to 100 scale)
90: Plant response rating Johnsongrass (Johnson grass; Rate 500 g/ha)
20: Plant response rating, Itchgrass (itchgrass; [5]) | Plant response rating, Itchgrass (itchgrass; [6]) | Plant response rating Johnsongrass (Johnson grass; [6])
40: Surinam grass plant response rating (surinam grass; [6]) | Plant response rating, Tall Mallow (tall mallow; [6]) | Plant response rating Large crabgrass (large crabgrass; [3]) | Plant response rating, Guineagrass (guineagrass; [3])
60: Plant response rating, Dallisgrass (dallisgrass; [3])
98: Plant response rating, Surinam grass (surinam grass; Rate 250 g/ha) | Plant response rating, Goosegrass (goosegrass; [4]) | Plant response rating, Goosegrass (goosegrass; [5]) | Plant response rating, Goosegrass (goosegrass; [6]) | Plant response rating Large crabgrass (large crabgrass; [4]) | Plant response rating, Bermudagrass (bermuda-grass; [4]) | Plant response rating, Bermudagrass (bermuda-grass; [5]) | Plant response rating, Sandbur (sandbur; Rate 250 g/ha) | Plant response rating, Dallisgrass (dallisgrass; [4]) | Plant response rating, Dallisgrass (dallisgrass; [5]) | Plant response rating, Alexandergrass (Alexandergrass; [6]) | Plant response rating, Alexandergrass (Alexandergrass; Rate 250 g/ha) | Plant response rating, Guineagrass (guineagrass; [5]) | Plant response rating, Guineagrass (guineagrass; [6])
80: Plant response rating, Com. groundsel (common groundsel; Rate 500 g/ha)
